Tests used:
Test in all cases: relative viability (nuclei count vs DMSO), 5 days (fraction); higher = more cells survive
TGX 221 + Palbociclib = compound: CC1=CN2C(=O)C=C(N=C2C(=C1)C(C)NC3=CC=CC=C3)N4CCOCC4 [TGX 221] + CC(=O)c1c(C)c2cnc(Nc3ccc(N4CCNCC4)cn3)nc2n(C2CCCC2)c1=O [Palbociclib] (partner 0.5 µM)
Method in brief: (§1)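 Relative viability equals treated-well nuclei counts divided by vehicle-well nuclei counts. Counts came from 4× images of lung cancer cell lines grown in 1536-well plates for 5 days after pin-tool dosing on the day after seeding. Dosing used one drug alone or a fixed anchor-drug dose plus five library-drug doses (not always all listed) in √10 steps, and values are medians of duplicate plates.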

TGX 221 + Linsitinib = compound: CC1=CN2C(=O)C=C(N=C2C(=C1)C(C)NC3=CC=CC=C3)N4CCOCC4 [TGX 221] + C[C@]1(O)C[C@@H](c2nc(-c3ccc4ccc(-c5ccccc5)nc4c3)c3c(N)nccn32)C1 [Linsitinib] (partner 1 µM)
Method in brief: as §1

TGX 221 + Vorinostat = compound: CC1=CN2C(=O)C=C(N=C2C(=C1)C(C)NC3=CC=CC=C3)N4CCOCC4 [TGX 221] + O=C(CCCCCCC(=O)Nc1ccccc1)NO [Vorinostat] (partner 1 µM)
Method in brief: as §1

[1] = compound: O=C(CCCCCCNC(=O)c1cnc(N(c2ccccc2)c2ccccc2)nc1)NO [Ricolinostat] + C[C@]1(O)C[C@@H](c2nc(-c3ccc4ccc(-c5ccccc5)nc4c3)c3c(N)nccn32)C1 [Linsitinib] (partner 1 µM)
Method in brief: as §1

Cell Line | relative viability (TGX 221 + Palbociclib; first compound 0.08 µM) | relative viability (TGX 221 + Palbociclib; first compound 0.253 µM) | relative viability (TGX 221 + Palbociclib; first compound 0.8 µM) | relative viability (TGX 221 + Palbociclib; first compound 2.53 µM) | relative viability (TGX 221 + Palbociclib; first compound 8 µM) | relative viability (TGX 221 + Linsitinib; first compound 0.08 µM) | relative viability (TGX 221 + Linsitinib; first compound 0.253 µM) | relative viability (TGX 221 + Linsitinib; first compound 0.8 µM) | relative viability (TGX 221 + Linsitinib; first compound 2.53 µM) | relative viability (TGX 221 + Linsitinib; first compound 8 µM) | relative viability (TGX 221 + Vorinostat; first compound 0.08 µM) | relative viability (TGX 221 + Vorinostat; first compound 0.253 µM) | relative viability (TGX 221 + Vorinostat; first compound 0.8 µM) | relative viability (TGX 221 + Vorinostat; first compound 2.53 µM) | relative viability (TGX 221 + Vorinostat; first compound 8 µM) | relative viability ([1]; first compound 0.08 µM) | relative viability ([1]; first compound 0.253 µM) | relative viability ([1]; first compound 0.8 µM) | relative viability ([1]; first compound 2.53 µM)
RERF-LC-KJ | 1.06 | 0.979 | 1.09 | 0.905 | 0.914 | 0.803 | 0.845 | 0.852 | 0.721 | 0.747 | 0.684 | 0.708 | 0.678 | 0.69 | 0.678 | 0.952 | 0.77 | 0.897 | 0.824
SK-LU-1 | 0.342 | 0.359 | 0.357 | 0.379 | 0.317 | 0.96 | 0.904 | 0.922 | 1.06 | 0.858 | 0.644 | 0.682 | 0.72 | 0.776 | 0.712 | 1.09 | 0.96 | 1.18 | 0.76
SK-MES-1 | 0.304 | 0.336 | 0.308 | 0.287 | 0.323 | 1.05 | 1.03 | 1.03 | 0.913 | 0.573 | 1.03 | 0.997 | 1.16 | 0.987 | 0.894 | 1.01 | 1.01 | 1.12 | 1.02
SW 1573 | 0.299 | 0.313 | 0.39 | 0.341 | 0.343 | 0.686 | 0.747 | 0.685 | 0.768 | 0.544 | 0.648 | 0.655 | 0.739 | 0.888 | 0.778 | 0.673 | 0.781 | 0.781 | 0.853
UMC-11 | 0.299 | 0.328 | 0.306 | 0.338 | 0.374 | 0.966 | 0.979 | 1.13 | 0.987 | 1.04 | 0.417 | 0.391 | 0.402 | 0.373 | 0.359 | 1.02 | 0.932 | 1 | 0.723

Reference: the supplement of paper PMC10307832
